Legend:
human osteoblast cells = assay: Standard tumor promoter assay: Lucifer Yellow dye transfer, DDT-induced uncoupling; assay type: cell-based; settings: DDT 13 μM for 60 minutes, n=13; control without DDT median 14.5 cells
From the text: The compound 1,1-bis(p-chlorophenyl)-2,2,2-trichlorethane, also known as the insecticide DDT, is an inhibitor of gap junctional communication, and has tumor promoting abilities. It inhibits cell-to-cell communication by reducing the gap junction number and size, and exposure to DDT is associated with decreased cellular levels of phosphorylated (active) forms of the gap junction protein Cx43. These actions are considered pivotal for the compound's oncogenic properties (X. Guan, et al. (1996) Carcinogenesis, 17 1791-1798; R. J. Ruch, et al. (1994) Carcinogenesis, 15 301-306); B. V. Madhukar, et al. (1996) Cancer Lett. 106 117-123). As a means of monitoring the therapeutic efficacy of the isopeptides, the effects of the isopeptides on DDT-induced uncoupling in human osteoblast cells can be determined. […]
After harvesting, the mononuclear fraction is washed once with culture medium and centrifuged at 1800 rpm for 10 minutes. Subsequently cells are counted and plated in culture medium at 8×10^6 cells/100 mm dish. […]
After culturing, cells are affixed to a PDMI-2 culture chamber (Medical Systems Corp.), maintained at 37° C. with superfused CO2, on a Zeiss Axiovert microscope. […] A cell in the monolayer is carefully injected with LY for 30 seconds; the micropipette is removed from the cell and after 30 seconds the number of cells that show dye transfer is counted. […]

[1] = test system: calcium-induced arrhythmias; assay: Calcium-induced arrhythmia model (Lynch et al.) in mice; assay type: in vivo, Male NMRI mice; settings: isopeptide 1 nmol/kg i.v. 3 min before CaCl2 infusion; (tarr(testcompound)-tarr(vehicle))x100/tarr(vehicle), time lag to first conduction block
Experimental: Isopeptides suitable for administration to cardiac cells can be identified in an in vivo model of calcium-induced arrhythmias according to the model of Lynch et al. (1981) J Cardiovasc. Pharmacol. 3: 49-60. Mice (25-30 g) are anaesthetized with a neurolept anaesthetic combination and an i.v. cannula is inserted into the tail vein. A lead II ECG signal is recorded continuously by positioning a stainless steel ECG electrodes on the right forelimb and on the left hind limb. The ground electrode is placed on the right hind limb. The signal is amplified (x 5.000-10.000) and filtered (0.1-150 Hz) via a Hugo Sachs Electronic model 689 ECG module. The analog signal is digitized via a 12 bit data acquisition board (Data Translation model DT321) and sampled at 1000 Hz using the Notocord HEM 3.1 software for Windows NT. After a 10-minute equilibration period, the test sample of peptide is injected into the tail vein. Mice pre-treated with buffer are tested as a measure of the control level in untreated animals. The injection volume is 100 μl in all experiments.
Infusion of CaCl2 (30 mg/ml, 0.1 ml/min≈100 mg/kg/min (calcium chloride-2-hydrate, Riedel-de Haën, Germany)) is started 3 min after i.v. administration of drug or vehicle. The time lag to onset of 2nd degree AV-block is determined as the time from the start of CaCl2 infusion until the first arrhythmic event occurs. An event of 2nd degree AV-block is defined as intermittent failure of the AV conduction characterised by a P-wave without the concomitant QRS complex.
Responses are expressed relative to the time until 2nd degree AV-block occurred in vehicle treated mice. The maximal effect of compounds (e.g., isopeptides, AAP, AAP10 or controls) is determined. […]
An intravenous cannula was inserted into the tail vein. The lead II ECG signal was recorded continuously by positioning of stainless steel ECG electrodes on the right forelimb and on the left hind limb. […]

| Molecule | number of cells that show dye transfer (median) (human osteoblast cells) | % response [1] [%] |
| --- | --- | --- |
| Clc1ccc(C(c2ccc(Cl)cc2)C(Cl)(Cl)Cl)cc1 [DDT, 1,1-bis(p-chlorophenyl)-2,2,2-trichlorethane] | 7 | – |
| H-Gly-iso-D-Lys(4-methoxybenzoyl)-OH [Compound 18] | – | 16 |
| H-Gly-iso-D-Lys(4-nitrobenzoyl)-OH [Compound 19] | – | 33 |
| H-iso-Gln(NH(4-methoxybenzyl))-Ala-OH [Compound 101] | – | 68 |
| H-iso-Gln(NH(4-methoxybenzyl))-D-Ala-OH [Compound 116] | – | 25 |
